# Test results as given in paper PMC11359809, “Probing the molecular basis for signal transduction through the Zinc-Activated Channel (ZAC)” (Biochemical pharmacology, 2021).
# Numbering of substitutions follows the chain as printed.
# Tests used:
# [1] = target: T1, ZAC^L9′I (Homo sapiens, UniProt Q401N2, A152T/L270I); assay: TEVC in oocytes, ZAC L9′I mutant; assay type: cell-based; conditions: agonist; n = 8
# T1 construct: expressed in transfected cells; host or cells: Xenopus oocytes (cRNA injection, pUNIV vector)
# T1 sequence (Q401N2 26-412 A152T/L270I): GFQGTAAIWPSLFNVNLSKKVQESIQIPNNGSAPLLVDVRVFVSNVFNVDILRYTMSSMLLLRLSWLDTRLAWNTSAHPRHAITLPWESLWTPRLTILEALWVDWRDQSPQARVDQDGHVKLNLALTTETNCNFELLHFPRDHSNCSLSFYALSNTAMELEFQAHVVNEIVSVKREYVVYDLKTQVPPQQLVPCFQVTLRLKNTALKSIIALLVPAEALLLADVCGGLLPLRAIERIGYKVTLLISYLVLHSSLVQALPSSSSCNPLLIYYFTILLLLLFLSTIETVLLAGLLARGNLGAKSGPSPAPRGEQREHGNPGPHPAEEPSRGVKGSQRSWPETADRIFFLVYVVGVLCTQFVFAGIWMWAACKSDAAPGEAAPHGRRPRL
# Procedure: (§1) The recordings were performed at room temperature.
# (§2) Analysis of the data from the TEVC recordings were performed using Clampfit software version 10.5 (Molecular Devices, Crawley, UK) and GraphPad Prism version 7.0c (GraphPad Software, La Jolla, CA). Unless otherwise stated, the inward currents induced by agonists in oocytes were normalized to the maximal response elicited by a specific agonist (agonist Imax) on each oocyte. Concentration-response and concentration-inhibition curves were fitted in GraphPad Prism by nonlinear regression using the equation for sigmoidal dose-response with variable slope. Each data point represents the mean ± S.E.M. value of recordings performed on at least five oocytes in total from at least two different batches. For the data where statistical analysis was performed, a one-way ANOVA was used. The null hypothesis was rejected at P < 0.05, and the differences between the means were analyzed by Tukey’s multiple comparisons test.
# [2] = test system: hα1-Gly/ZAC; assay: TEVC in oocytes expressing hα1-Gly/ZAC chimera; assay type: cell-based, human; conditions: 10 mM Zn^2+; outward current; n = 5
# Procedure: as §1, §2
# Initially, we constructed four chimeric subunits fusing the ZAC ECD or TMD-ICD with the complementary domains from either the m5-HT3A or the hα1 GlyR subunit: ZAC/m5-HT3A, m5-HT3A/ZAC, ZAC/hα1-Gly and hα1-Gly/ZAC (Fig. 1A). […] (Fig. 1A).
# [3] = target: T2, ZAC^E24A (Homo sapiens, UniProt Q401N2, A152T/E48A); assay: TEVC in oocytes, ZAC E24A mutant; assay type: cell-based; conditions: agonist; n = 5
# T2 construct: expressed in transfected cells; host or cells: Xenopus oocytes injected with cRNA (pUNIV vector)
# Procedure: as §1
# as §2, with “For the data where statistical analysis was performed, a one-way ANOVA was used.” left out
# (§3) The putative involvement of candidate residues in Clusters 1, 2, 3 and 4 in Zn^2+ binding to ZAC was investigated in by an elaborate alanine mutagenesis scanning. […] The determined IpH 4.0 value was used in part as a control and in part to enable the distinction of ZAC mutants non-responsive to Zn^2+ due to elimination of their ability to bind the metal ion from those where the mutation had eliminated cell surface expression and/or disrupted overall functionality of the receptor complex. […]
# [4] = target: T3, WT m5-HT3AR (Mus musculus, UniProt P23979); assay: TEVC in Xenopus oocytes expressing WT m5-HT3AR; assay type: cell-based; conditions: 5-HT 30 μM
# T3 construct: expressed in transfected cells; host or cells: Xenopus oocytes injected with cRNA (pUNIV vector)
# T3 sequence (P23979 24-489): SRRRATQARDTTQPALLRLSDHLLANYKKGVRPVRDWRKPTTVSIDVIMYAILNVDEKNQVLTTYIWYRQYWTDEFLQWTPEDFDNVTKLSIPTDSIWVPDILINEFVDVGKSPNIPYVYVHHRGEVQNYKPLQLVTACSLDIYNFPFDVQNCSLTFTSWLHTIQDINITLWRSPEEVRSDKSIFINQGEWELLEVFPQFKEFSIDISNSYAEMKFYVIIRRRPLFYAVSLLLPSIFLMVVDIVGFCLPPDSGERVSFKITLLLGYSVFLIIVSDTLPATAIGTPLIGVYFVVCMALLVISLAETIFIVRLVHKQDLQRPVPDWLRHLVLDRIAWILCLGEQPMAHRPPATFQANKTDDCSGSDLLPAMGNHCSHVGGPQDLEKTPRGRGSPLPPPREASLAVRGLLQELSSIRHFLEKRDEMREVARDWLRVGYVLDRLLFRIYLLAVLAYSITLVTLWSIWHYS
# Procedure: as §1, §2
# [5] = test system: ZAC^H120F; assay: TEVC in oocytes, ZAC H120F mutant; assay type: cell-based, human; conditions: agonist
# Procedure: as §1
# as §2, with “For the data where statistical analysis was performed, a one-way ANOVA was used.” left out
# as §3
# [6] = target: T4, ZAC^L9′T (Homo sapiens, UniProt Q401N2, A152T/L270T); assay: TEVC in oocytes, ZAC L9′T mutant; assay type: cell-based; conditions: agonist; n = 6
# T4 construct: expressed in transfected cells; host or cells: Xenopus oocytes (cRNA injection, pUNIV vector)
# T4 sequence (Q401N2 26-412 A152T/L270T): T1 sequence (Q401N2 26-412 A152T/L270I) with I245T
# Procedure: as §1, §2
# [7] = target: T5, ZAC^L9′A (Homo sapiens, UniProt Q401N2, A152T/L270A); assay: TEVC in oocytes, ZAC L9′A mutant; assay type: cell-based; conditions: agonist; n = 7
# T5 construct: expressed in transfected cells; host or cells: Xenopus oocytes injected with cRNA (pUNIV vector)
# T5 sequence (Q401N2 26-412 A152T/L270A): T1 sequence (Q401N2 26-412 A152T/L270I) with I245A
# Procedure: as §1, §2
# [8] = target: T6, ZAC^D105A (Homo sapiens, UniProt Q401N2, A152T/D129A); assay: TEVC in oocytes, ZAC D105A mutant; assay type: cell-based
# T6 construct: expressed in transfected cells; host or cells: Xenopus oocytes (cRNA injection, pUNIV vector)
# Procedure: as §1
# as §2, with “For the data where statistical analysis was performed, a one-way ANOVA was used.” left out
# as §3
# T2 sequence (Q401N2 26-412 E48A/A152T): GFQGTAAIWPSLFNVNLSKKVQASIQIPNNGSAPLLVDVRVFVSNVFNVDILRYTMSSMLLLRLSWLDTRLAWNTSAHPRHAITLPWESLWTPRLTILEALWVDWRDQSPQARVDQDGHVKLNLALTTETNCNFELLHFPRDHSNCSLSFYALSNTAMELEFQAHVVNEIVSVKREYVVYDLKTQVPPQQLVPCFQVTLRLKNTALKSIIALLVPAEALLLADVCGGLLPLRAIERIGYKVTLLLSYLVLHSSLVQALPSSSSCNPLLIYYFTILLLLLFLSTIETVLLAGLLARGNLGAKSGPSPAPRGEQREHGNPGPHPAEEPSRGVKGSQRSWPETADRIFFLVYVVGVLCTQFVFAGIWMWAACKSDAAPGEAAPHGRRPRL
# T6 sequence (Q401N2 26-412 D129A/A152T): as the sequence (Q401N2 26-412 E48A/A152T) above, with A23E, D104A counted along it
smiles,measurement,setting,value
"[Cl-].[Cl-].[Zn+2] [Zn^2+, ZnCl2]",EC50,[1],24 µM
same,nH ± S.E.M. (Hill slope),[1],0.8 ± 0.2
same,pEC50 ± S.E.M.,[1],4.62 ± 0.15
same,I10 mM Zn2+ ± S.E.M.,[2],0.0298 ± 0.0058 μA
same,EC50,[3],71 µM
same,pEC50 ± S.E.M.,[3],4.15 ± 0.04
same,modulation of 5-HT (EC80)-evoked currents,[4],potentiated the 5-HT-induced response through WT m5-HT3AR at low-micromolar concentrations and inhibited it at higher concentrations
same,fitted EC50 relative to WT ZAC (higher),[5],~ 3 fold
same,EC50,[6],66 µM
same,nH ± S.E.M. (Hill slope),[6],0.7 ± 0.4
same,pEC50 ± S.E.M.,[6],4.18 ± 0.34
same,EC50,[7],230 µM
same,nH ± S.E.M. (Hill slope),[7],1.2 ± 0.2
same,pEC50 ± S.E.M.,[7],3.64 ± 0.08
same,concentration-response relationship compared to WT ZAC,[8],did not differ significantly
